Results as given in ChEMBL document CHEMBL1141648, “Aurora kinase A inhibitors: identification, SAR exploration and molecular modeling of 6,7-dihydro-4H-pyrazolo-[1,5-a]pyrrolo[3,4-d]pyrimidine-5,8-dione scaffold” (Bioorg Med Chem Lett, 2008).
pIC50, pKi: −log10 of the molar value.

Key:
[1] = target: T1, Aurora kinase A (Homo sapiens) (UniProt O14965); assay: Inhibition of Aurora A kinase at 50 uM
T1 sequence (whole entry): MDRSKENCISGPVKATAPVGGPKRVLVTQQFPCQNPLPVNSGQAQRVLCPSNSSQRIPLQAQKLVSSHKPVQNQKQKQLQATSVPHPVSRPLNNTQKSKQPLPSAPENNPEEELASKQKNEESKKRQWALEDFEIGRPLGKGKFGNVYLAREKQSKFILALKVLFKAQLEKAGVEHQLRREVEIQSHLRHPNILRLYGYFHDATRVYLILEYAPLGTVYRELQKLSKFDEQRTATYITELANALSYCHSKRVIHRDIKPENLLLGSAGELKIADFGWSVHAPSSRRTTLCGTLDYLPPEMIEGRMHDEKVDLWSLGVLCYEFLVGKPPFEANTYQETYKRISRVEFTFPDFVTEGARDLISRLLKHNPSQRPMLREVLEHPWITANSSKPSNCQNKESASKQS

[2] = target: T1, Aurora kinase A (Homo sapiens); assay: Inhibition of Aurora A kinase at 10 uM
[3] = target: T2, Aurora kinase A (Homo sapiens, UniProt O14965); assay: Inhibition of Aurora A kinase
T2 sequence (O14965 whole entry): T1 sequence (whole entry)

[4] = target: T3, Aurora kinase C (Homo sapiens, UniProt Q9UQB9); assay: Inhibition of Aurora C kinase
T3 sequence (Q9UQB9 whole entry): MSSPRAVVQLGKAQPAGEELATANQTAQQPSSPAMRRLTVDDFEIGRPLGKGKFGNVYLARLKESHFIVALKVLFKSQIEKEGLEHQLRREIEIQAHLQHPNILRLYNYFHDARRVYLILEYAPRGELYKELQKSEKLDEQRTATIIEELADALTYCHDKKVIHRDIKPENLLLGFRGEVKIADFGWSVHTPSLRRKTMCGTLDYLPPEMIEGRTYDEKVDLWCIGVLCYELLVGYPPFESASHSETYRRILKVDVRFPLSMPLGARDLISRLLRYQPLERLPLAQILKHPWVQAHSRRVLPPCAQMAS

Row | SMILES | inhibition [1] [%] | inhibition [2] [%] | pIC50 [3] | pKi [4]
1 | O=C1c2[nH]c3cc(-c4cccs4)nn3c(=O)c2CN1Cc1ccccc1 | 72.3 | 29.4 |  | 
2 | Cc1cc2[nH]c3c(c(=O)n2n1)CN(Cc1ccccc1)C3=O | 20.8 | 1.8 |  | 
3 | COc1ccccc1CN1Cc2c([nH]c3cc(-c4ccco4)nn3c2=O)C1=O | 95.1 | 51.6 | 5.25 | 
4 | O=C1c2[nH]c3cc(-c4ccco4)nn3c(=O)c2CN1c1ccccc1 | 73.7 | 7.6 |  | 
5 | O=C1c2[nH]c3cc(-c4ccco4)nn3c(=O)c2CN1CCc1ccccc1 | 83.9 | 19.6 |  | 
6 | COc1ccc(CN2Cc3c([nH]c4cc(-c5ccco5)nn4c3=O)C2=O)cc1OC | 70.8 | 7.8 |  | 
7 | O=C1c2nc3cc(-c4ccco4)nn3c(O)c2CN1Cc1ccccc1 | 90.2 | 35.6 | 4.82 | 
8 | O=C1c2[nH]c3cc(-c4ccco4)nn3c(=O)c2CN1CCCc1ccccc1 | 84.4 | 16.4 |  | 
9 | O=C1c2[nH]c3cc(-c4ccco4)nn3c(=O)c2CN1Cc1ccc(F)cc1 | 89.8 | 24 |  | 
10 | O=C1c2[nH]c3cc(-c4ccco4)nn3c(=O)c2CN1Cc1ccccn1 | 79.2 | 21.6 |  | 
11 | COc1ccc(CN2Cc3c([nH]c4cc(-c5ccco5)nn4c3=O)C2=O)cc1 | 88.2 | 42.4 | 5.10 | 
12 | O=C1c2[nH]c3cc(-c4ccco4)nn3c(=O)c2CN1Cc1ccc2c(c1)OCO2 | 75.2 | 12.3 |  | 
13 | O=C1c2[nH]c3cc(-c4ccco4)nn3c(=O)c2CN1CCN1CCOCC1 | 10.7 | 0.9 |  | 
14 | COc1cc(CN2Cc3c([nH]c4cc(-c5ccco5)nn4c3=O)C2=O)cc(OC)c1 | 75.3 | 10.1 |  | 
15 | CO[C@@H](C(=O)N1Cc2n[nH]c(NC(=O)c3ccc(N4CCN(C)CC4)cc3)c2C1)c1ccccc1 [DANUSERTIB] |  |  |  | 7.21
16 | Cn1c2c(c(=O)n3nc(-c4ccco4)cc13)CN(Cc1ccccc1)C2=O | 3.4 | 2.3 |  | 
17 | COc1cccc(CN2Cc3c([nH]c4cc(-c5ccco5)nn4c3=O)C2=O)c1 | 90 | 29.3 | 4.82 | 
18 | O=C1c2nc3cc(-c4ccccc4)nn3c(O)c2CN1Cc1ccccc1 | 47.2 | 25.9 |  | 
19 | O=C1c2[nH]c3cc(-c4ccco4)nn3c(=O)c2CN1Cc1cccc2ccccc12 | 79.9 | 30.4 |  | 
20 | O=C1c2c(c(=O)n3nc(-c4ccco4)cc3n2CCN2CCOCC2)CN1Cc1ccccc1 | 1.1 | 0 |  | 
21 | CC(=O)Nc1cccc(CN2Cc3c([nH]c4cc(-c5ccco5)nn4c3=O)C2=O)c1 | 87.8 | 35.8 | 4.74 | 
22 | O=C1c2[nH]c3ccnn3c(=O)c2CN1Cc1ccccc1 | 14.5 | 1.6 |  | 
